The values that follow come from ChEMBL document CHEMBL3046273, “Molecular cloning and pharmacological characterisation of a tyramine receptor from the rice stem borer, Chilo suppressalis (Walker)” (Pest Manag Sci, 2013).

Holding throughout (assay type): functional, cell-based
The target in assay [1] is T1, TyR1 (Chilo suppressalis) (UniProt H9TVJ1).
T1 sequence (whole entry): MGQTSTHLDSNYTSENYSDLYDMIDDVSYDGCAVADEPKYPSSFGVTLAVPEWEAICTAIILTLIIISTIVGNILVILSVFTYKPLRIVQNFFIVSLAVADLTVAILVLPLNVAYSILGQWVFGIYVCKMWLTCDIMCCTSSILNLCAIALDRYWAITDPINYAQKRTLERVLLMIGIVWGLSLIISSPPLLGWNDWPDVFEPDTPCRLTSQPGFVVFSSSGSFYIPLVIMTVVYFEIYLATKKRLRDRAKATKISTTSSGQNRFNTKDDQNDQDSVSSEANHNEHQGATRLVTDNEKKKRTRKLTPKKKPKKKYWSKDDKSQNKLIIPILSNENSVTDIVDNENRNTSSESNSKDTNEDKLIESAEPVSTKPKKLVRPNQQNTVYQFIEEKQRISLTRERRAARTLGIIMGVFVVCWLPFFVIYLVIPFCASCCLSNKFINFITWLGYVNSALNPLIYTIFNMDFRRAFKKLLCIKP
The experiment in a line: Agonist activity at Chilo suppressalis (rice stem borer) tyramine receptor TyR1 expressed in HEK293 cells assessed as increase in forskolin-induced cAMP accumulation at 10 uM incubated for 20 min relative to untreated control. On the technique in general: Changes in cAMP serve as a functional read-out for many G protein-coupled receptors.

Assay [2] addresses T1, TyR1 (Chilo suppressalis). The experiment in a line: Agonist activity at Chilo suppressalis (rice stem borer) tyramine receptor TyR1 expressed in HEK293 cells assessed as reduction in forskolin-induced cAMP accumulation at 10 uM incubated for 20 min. On the set-up: scale not given: the % may be the effect or the level left.
For assay [3], the target named is T1, TyR1 (Chilo suppressalis). In words: (§1) Agonist activity at Chilo suppressalis (rice stem borer) tyramine receptor TyR1 expressed in HEK293 cells assessed as reduction in forskolin-induced cAMP accumulation incubated for 20 min.
Assay [4] addresses T2, TyR1 (Chilo suppressalis, UniProt H9TVJ1).
T2 sequence (H9TVJ1 whole entry): T1 sequence (whole entry)
The description is as §1.

Assay [5] addresses T1, TyR1 (Chilo suppressalis). In words: Agonist activity at Chilo suppressalis (rice stem borer) tyramine receptor TyR1 expressed in HEK293 cells assessed as reduction in forskolin-induced cAMP accumulation at < 1 umol incubated for 20 min.

Where a name gives a salt, the structure may show the parent alone. Active and inactive are the calls of the source. No cut-off for these calls is given here.

With `NCCc1c[nH]c2ccc(O)cc12`, the result in assay [1] and in assay [2] was inactive.
On to `Clc1cccc(Cl)c1NC1=NCCN1`, for which the outcome in assay [2] was Active.
For the compound `NCCc1ccc(O)cc1` [TYRAMINE HYDROCHLORIDE], the Activity in assay [2] is 75%; in assay [3] it was “Dose-dependent effect”. Further, in assay [4], the EC50 amounted to 369 nM.
As for `Cc1cc(Cl)ccc1/N=C/N(C)C`, the outcome in assay [2] was inactive.
On to `Cc1ccc(/N=C/N(C)/C=N/c2ccc(C)cc2C)c(C)c1`, for which the result in assay [2] was Active. In assay [5], the result was inactive.
`c1ccc2c(CC3=NCCN3)cccc2c1`: in assay [2], the outcome was inactive.
`NCCc1ccc(O)c(O)c1`: in assay [1], the fold change (FC) worked out at 2.
With `NCC(O)c1ccc(O)cc1` (racemic) [OCTOPAMINE HYDROCHLORIDE], the Activity in assay [2] is 56%; in assay [3], “Dose-dependent effect”. Besides, the EC50 in assay [4] was 978 nM.

The EC50 is the concentration needed to bring the measured effect to its halfway point.
